Measured values: patent US20240246942A1, “KINASE INHIBITORS FOR THE TREATMENT OF NEURODEGENERATIVE DISEASES” (priority 2020, published 2024)

Legend:
Assay in all cases: biochemical
[1] = target: T1, panel of 374 wild-type kinases (Homo sapiens, UniProt O00506); conditions: read-out: % Enzyme Activity (relative to DMSO controls), kinase STK25/YSK1
T1 construct: purchased Reaction Biology Corporation

[2] = target: T2, panel of 374 wild-type kinases (Homo sapiens, UniProt O15146); conditions: read-out: % Enzyme Activity (relative to DMSO controls), MUSK
T2 construct: purchased Reaction Biology Corporation
T2 sequence (O15146 24-869): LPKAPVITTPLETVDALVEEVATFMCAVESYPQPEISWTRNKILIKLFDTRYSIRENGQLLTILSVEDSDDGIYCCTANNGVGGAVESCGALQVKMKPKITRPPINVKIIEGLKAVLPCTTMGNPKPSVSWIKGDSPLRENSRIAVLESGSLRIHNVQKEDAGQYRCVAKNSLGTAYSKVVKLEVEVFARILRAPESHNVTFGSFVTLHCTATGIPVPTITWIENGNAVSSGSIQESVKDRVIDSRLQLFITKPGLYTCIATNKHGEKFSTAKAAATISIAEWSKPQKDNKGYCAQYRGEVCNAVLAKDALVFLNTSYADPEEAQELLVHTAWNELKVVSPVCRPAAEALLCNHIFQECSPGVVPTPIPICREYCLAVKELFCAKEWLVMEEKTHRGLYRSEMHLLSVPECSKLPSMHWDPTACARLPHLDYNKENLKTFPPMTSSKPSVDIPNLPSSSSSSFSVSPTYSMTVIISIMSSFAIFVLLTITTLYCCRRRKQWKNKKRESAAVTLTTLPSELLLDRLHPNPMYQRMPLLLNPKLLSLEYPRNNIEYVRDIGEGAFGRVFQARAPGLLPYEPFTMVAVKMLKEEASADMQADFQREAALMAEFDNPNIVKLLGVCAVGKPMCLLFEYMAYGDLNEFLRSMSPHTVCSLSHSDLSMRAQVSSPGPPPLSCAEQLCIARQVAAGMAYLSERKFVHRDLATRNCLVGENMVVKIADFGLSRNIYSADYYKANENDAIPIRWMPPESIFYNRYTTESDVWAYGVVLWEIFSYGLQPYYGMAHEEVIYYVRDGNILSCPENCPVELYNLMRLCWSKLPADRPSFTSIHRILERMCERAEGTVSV

[3] = target: T3, panel of 374 wild-type kinases (Homo sapiens, UniProt O75716); conditions: read-out: % Enzyme Activity (relative to DMSO controls), kinase STK16
T3 construct: purchased Reaction Biology Corporation

[4] = target: T4, panel of 374 wild-type kinases (Homo sapiens, UniProt O75914); conditions: read-out: % Enzyme Activity (relative to DMSO controls), kinase PAK3
T4 construct: purchased Reaction Biology Corporation

[5] = target: T5, panel of 374 wild-type kinases (Homo sapiens, UniProt P06241); conditions: read-out: % Enzyme Activity (relative to DMSO controls), FYN
T5 construct: purchased Reaction Biology Corporation

[6] = target: T6, panel of 374 wild-type kinases (Homo sapiens, UniProt P08922); conditions: read-out: % Enzyme Activity (relative to DMSO controls), kinase ROS/ROS1
T6 construct: purchased Reaction Biology Corporation

[7] = target: T7, panel of 374 wild-type kinases (Homo sapiens, UniProt P42679); conditions: read-out: % Enzyme Activity (relative to DMSO controls), CTK/MATK
T7 construct: purchased Reaction Biology Corporation
T7 sequence (P42679 1-507): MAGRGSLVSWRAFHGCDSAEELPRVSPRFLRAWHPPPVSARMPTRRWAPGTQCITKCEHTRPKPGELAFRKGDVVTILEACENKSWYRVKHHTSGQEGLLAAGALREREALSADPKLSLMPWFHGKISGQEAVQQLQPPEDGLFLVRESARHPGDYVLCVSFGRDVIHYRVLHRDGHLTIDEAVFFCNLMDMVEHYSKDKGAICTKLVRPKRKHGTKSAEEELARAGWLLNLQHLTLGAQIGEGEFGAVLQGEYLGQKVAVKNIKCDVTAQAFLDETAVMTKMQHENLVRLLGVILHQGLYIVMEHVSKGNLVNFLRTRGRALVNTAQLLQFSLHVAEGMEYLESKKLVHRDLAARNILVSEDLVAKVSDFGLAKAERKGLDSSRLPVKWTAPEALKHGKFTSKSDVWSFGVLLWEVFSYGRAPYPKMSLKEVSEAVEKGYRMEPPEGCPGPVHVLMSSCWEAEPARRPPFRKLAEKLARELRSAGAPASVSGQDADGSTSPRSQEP

[8] = target: T8, panel of 374 wild-type kinases (Homo sapiens, UniProt P45983); conditions: JNK1, read-out: % Enzyme Activity (relative to DMSO controls)
T8 construct: purchased Reaction Biology Corporation

[9] = target: T9, panel of 374 wild-type kinases (Homo sapiens, UniProt Q13233); conditions: read-out: % Enzyme Activity (relative to DMSO controls), MEKK1
T9 construct: purchased Reaction Biology Corporation

[10] = target: T10, panel of 374 wild-type kinases (Homo sapiens, UniProt Q9NR20); conditions: read-out: % Enzyme Activity (relative to DMSO controls), DYRK4
T10 construct: purchased Reaction Biology Corporation
T10 sequence (Q9NR20 1-520): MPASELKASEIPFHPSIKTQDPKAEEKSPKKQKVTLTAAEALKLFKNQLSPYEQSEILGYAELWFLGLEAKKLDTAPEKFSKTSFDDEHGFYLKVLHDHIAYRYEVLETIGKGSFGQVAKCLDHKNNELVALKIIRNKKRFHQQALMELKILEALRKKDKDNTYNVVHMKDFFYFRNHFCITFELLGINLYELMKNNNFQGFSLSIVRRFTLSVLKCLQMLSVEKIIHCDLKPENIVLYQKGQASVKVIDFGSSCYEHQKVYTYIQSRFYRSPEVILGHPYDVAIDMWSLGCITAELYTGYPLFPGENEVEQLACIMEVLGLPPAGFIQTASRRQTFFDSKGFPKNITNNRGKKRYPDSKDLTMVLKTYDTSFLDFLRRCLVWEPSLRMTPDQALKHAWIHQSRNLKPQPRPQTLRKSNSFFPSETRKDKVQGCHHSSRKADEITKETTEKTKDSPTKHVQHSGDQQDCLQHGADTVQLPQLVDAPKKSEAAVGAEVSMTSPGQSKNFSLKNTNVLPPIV

T6 sequence (P08922 28-2347): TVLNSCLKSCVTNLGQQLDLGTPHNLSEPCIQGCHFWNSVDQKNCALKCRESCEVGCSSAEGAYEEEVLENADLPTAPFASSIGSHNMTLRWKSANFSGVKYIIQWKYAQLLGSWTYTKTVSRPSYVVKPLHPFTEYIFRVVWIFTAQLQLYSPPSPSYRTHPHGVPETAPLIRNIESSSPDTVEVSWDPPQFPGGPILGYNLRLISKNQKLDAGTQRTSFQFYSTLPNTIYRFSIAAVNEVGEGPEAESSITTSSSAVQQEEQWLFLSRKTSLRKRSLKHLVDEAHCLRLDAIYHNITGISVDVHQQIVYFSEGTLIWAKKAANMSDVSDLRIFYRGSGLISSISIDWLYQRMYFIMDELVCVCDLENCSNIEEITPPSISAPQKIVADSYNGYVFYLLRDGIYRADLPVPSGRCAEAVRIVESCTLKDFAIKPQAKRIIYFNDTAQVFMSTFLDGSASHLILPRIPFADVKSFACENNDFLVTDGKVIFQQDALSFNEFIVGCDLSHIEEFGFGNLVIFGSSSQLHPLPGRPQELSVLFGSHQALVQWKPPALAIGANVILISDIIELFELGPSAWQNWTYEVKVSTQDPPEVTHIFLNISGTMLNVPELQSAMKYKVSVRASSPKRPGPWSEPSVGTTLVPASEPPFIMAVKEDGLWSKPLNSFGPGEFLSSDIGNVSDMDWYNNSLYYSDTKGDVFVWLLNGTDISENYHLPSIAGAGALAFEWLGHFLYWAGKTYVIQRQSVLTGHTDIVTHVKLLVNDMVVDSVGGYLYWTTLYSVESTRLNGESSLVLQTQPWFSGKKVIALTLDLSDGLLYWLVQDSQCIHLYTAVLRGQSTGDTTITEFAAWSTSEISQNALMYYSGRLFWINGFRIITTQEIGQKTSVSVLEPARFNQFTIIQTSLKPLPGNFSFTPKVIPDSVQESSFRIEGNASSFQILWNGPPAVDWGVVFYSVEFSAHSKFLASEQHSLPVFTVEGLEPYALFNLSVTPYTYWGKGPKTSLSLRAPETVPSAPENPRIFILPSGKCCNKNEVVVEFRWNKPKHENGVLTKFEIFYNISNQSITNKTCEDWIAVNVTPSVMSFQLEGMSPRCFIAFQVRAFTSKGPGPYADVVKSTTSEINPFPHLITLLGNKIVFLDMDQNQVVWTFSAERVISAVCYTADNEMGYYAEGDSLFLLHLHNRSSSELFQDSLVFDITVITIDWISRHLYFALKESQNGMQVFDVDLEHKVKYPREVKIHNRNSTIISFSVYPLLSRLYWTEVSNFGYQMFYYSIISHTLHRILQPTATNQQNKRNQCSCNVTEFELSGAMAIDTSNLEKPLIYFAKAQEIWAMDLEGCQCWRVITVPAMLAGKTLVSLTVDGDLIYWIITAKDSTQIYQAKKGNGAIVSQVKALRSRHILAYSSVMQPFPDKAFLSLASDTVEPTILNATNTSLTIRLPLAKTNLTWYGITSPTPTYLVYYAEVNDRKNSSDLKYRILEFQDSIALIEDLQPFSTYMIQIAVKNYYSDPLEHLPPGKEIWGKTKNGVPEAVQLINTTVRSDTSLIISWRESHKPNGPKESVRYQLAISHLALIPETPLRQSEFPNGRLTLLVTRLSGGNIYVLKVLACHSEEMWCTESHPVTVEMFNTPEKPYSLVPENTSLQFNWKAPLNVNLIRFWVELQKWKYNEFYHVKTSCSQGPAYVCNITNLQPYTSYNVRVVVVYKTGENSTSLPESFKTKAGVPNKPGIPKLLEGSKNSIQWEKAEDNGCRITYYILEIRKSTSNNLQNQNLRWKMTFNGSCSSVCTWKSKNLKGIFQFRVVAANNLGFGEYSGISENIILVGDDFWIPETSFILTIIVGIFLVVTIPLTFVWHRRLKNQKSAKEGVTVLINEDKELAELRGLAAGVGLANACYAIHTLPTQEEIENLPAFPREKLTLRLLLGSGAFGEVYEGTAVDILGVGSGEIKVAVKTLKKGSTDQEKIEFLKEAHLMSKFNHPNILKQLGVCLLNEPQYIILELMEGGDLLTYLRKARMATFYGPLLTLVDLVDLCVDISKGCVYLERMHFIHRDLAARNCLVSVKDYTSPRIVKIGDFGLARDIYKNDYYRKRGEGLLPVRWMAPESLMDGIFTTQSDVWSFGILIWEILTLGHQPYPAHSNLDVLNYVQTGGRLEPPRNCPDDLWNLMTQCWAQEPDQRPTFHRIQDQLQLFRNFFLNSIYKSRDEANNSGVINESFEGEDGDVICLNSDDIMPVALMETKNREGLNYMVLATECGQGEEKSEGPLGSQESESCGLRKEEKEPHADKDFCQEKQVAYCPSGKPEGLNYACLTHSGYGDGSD
T5 sequence (P06241 whole entry): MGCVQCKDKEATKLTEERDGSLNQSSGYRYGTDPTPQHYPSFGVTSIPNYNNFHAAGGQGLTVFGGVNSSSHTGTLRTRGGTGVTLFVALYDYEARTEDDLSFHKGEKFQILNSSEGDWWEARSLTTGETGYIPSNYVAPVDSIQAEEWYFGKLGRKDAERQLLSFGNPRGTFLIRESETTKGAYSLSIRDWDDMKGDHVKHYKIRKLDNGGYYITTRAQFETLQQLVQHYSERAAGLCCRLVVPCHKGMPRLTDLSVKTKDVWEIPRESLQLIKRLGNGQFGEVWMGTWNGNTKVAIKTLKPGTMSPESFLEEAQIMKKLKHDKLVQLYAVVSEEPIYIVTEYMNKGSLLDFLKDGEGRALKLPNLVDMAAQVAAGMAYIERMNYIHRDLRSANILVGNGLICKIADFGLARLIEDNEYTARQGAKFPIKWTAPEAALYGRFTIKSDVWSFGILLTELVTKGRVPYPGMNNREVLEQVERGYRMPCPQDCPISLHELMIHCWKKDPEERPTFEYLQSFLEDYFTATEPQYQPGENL
T4 sequence (O75914 whole entry): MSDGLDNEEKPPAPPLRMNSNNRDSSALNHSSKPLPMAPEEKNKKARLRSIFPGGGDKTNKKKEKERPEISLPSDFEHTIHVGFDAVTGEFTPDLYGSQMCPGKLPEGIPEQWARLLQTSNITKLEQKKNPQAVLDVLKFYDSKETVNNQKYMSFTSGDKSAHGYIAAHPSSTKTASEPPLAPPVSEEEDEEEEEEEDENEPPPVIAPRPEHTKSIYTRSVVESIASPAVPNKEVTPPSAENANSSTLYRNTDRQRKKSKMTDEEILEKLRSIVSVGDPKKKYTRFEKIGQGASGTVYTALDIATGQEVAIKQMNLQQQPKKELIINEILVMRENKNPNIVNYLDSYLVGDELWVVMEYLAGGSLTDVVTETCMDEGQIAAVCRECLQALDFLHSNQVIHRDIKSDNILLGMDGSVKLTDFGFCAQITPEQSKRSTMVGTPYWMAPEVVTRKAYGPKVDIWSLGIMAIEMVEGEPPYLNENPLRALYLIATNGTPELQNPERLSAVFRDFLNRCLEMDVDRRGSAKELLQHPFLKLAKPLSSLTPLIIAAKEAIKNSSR
T9 sequence (Q13233 whole entry): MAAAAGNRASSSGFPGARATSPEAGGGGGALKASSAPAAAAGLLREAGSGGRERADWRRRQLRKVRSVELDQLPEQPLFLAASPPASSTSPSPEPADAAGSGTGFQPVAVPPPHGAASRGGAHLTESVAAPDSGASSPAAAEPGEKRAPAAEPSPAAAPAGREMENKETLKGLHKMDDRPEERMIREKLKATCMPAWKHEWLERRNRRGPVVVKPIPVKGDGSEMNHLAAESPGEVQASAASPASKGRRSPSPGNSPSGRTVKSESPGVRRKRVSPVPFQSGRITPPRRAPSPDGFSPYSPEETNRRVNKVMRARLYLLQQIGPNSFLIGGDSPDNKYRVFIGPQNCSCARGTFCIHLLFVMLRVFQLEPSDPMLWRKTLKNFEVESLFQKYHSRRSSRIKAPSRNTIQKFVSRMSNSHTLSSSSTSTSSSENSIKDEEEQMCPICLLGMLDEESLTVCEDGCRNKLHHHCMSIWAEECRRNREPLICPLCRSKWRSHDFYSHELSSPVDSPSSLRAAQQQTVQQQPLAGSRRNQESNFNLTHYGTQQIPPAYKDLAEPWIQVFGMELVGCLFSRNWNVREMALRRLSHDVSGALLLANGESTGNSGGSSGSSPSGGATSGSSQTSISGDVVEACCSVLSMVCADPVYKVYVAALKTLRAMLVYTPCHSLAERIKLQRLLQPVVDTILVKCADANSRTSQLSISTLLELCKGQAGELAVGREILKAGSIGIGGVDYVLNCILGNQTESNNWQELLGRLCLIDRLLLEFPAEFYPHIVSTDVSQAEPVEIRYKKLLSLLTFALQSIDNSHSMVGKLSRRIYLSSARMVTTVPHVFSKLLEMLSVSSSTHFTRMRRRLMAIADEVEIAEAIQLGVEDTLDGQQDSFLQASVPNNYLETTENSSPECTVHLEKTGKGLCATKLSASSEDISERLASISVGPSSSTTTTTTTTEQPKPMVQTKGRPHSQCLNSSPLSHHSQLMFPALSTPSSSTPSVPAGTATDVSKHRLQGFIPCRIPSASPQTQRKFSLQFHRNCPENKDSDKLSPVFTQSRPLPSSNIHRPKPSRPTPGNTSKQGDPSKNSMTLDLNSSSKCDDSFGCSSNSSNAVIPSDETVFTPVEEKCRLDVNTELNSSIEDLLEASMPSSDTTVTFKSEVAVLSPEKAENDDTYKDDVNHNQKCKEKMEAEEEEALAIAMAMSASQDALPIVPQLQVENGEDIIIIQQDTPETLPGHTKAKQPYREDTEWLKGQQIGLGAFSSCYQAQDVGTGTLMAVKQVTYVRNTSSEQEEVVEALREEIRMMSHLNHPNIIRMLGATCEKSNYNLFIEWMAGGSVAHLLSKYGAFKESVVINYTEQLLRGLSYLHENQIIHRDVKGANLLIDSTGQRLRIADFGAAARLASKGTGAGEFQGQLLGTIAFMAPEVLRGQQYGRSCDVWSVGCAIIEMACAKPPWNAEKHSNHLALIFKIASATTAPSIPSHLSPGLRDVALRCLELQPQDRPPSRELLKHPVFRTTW

SMILES | remaining activity at 5 µM [1] | remaining activity at 5 µM [2] | remaining activity at 5 µM [3] | remaining activity at 5 µM [4] | remaining activity at 5 µM [5] | remaining activity at 5 µM [6] | remaining activity at 5 µM [7] | remaining activity at 5 µM [8] | remaining activity at 5 µM [9] | remaining activity at 5 µM [10] | remaining activity at 10 µM ([1]; 10 uM) | remaining activity at 10 µM ([2]; 10 uM) | remaining activity at 10 µM ([3]; 10 uM) | remaining activity at 10 µM ([4]; 10 uM) | remaining activity at 10 µM ([5]; 10 uM) | remaining activity at 10 µM ([6]; 10 uM) | remaining activity at 10 µM ([7]; 10 uM) | remaining activity at 10 µM ([8]; 10 uM) | remaining activity at 10 µM ([9]; 10 uM) | remaining activity at 10 µM ([10]; 10 uM)
O=C(Nc1cnn(-c2csc(C(=O)NC3COC3)c2)c1)Nc1c(F)cccc1Cl [Compound 25, 4-(4-(3-(2-chloro-6-fluorophenyl)ureido)-1H-pyrazol-1-yl)-N-(oxetan-3-yl)thiophene-2-carboxamide] | 96.1% | 86.8% | 107% | 64.2% | 90.3% | 85.5% | 100% | 49.1% | 98.7% | 96.2% |  |  |  |  |  |  |  |  |  | 
O=C(Nc1cnn(-c2csc(C(=O)NC3COC3)c2)c1)Nc1ccccc1Cl [Compound 17, 4-(4-(3-(2-chlorophenyl)ureido)-1H-pyrazol-1-yl)-N-(oxetan-3-yl)thiophene-2-carboxamide] | 106% | 94.5% | 98.6% | 97.4% | 97.8% | 103% | 99.7% | 57.6% | 103% | 94.6% |  |  |  |  |  |  |  |  |  | 
Cc1sc(C(=O)NC2COC2)cc1-n1cc(NC(=O)Nc2c(F)cccc2Cl)cn1 [Compound 27, 4-(4-(3-(2-chloro-6-fluorophenyl)ureido)-1H-pyrazol-1-yl)-5-methyl-N-(oxetan-3-yl)thiophene-2-carboxamide] |  |  |  |  |  |  |  |  |  |  | 70.5% | 103% | 94.4% | 114% | 99.8% | 102% | 97.8% | 76.3% | 94.5% | 93.7%
